SMILES strings stand for the structures.

The target of experiment [1] is T1, PPAR-α (Peroxisome Proliferator Activated Receptor-alpha) (Homo sapiens, UniProt Q07869).
T1 construct: expressed in transfected cells; host or cells: CV-1 monkey kidney epithelial cells (ATCC CCL 70)
T1 sequence (Q07869 1-468): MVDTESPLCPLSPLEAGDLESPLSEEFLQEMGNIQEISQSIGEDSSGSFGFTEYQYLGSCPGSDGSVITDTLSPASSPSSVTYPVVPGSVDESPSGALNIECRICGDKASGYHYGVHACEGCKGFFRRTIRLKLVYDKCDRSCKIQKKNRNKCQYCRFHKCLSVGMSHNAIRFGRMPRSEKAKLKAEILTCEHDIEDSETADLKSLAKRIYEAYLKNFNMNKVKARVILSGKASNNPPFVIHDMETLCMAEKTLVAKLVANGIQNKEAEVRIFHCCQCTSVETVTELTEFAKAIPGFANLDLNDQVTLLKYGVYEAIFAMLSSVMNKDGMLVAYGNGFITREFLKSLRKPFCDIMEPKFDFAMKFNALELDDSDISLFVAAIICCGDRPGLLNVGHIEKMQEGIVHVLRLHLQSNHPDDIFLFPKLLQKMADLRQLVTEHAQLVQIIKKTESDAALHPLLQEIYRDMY
Nature of the experiment: Activation of PPAR-α, luciferase reporter in CV-1 cells. It counts as cell-based. The conditions noted are these: 24 hours, negative control and non-treated group = 1.0. As for the experimental part: Monkey kidney epithelial cell line CV-1 (ATCC CCL 70) was subcultured in a DMEM medium containing 10% fetal bovine serum treated with charcol/dextran, which was a phenol red-free medium to remove the effect by estrogen of phenol red.
CV-1 cells were distributed in a 24-well plate type incubator at a concentration of 5×10^4. After 24 hours cultivation, the 3 different plasmids were transient transfected. After 24 hours cultivation, the plate was washed with 1×PBS (Phosphate Buffered Saline) and treated with ligand candidates at various concentrations. After 24 hours cultivation, the plate was washed with 1×PBS and the cells were lyzed with 1×PLB (Passive Lysis Buffer) and measured for luciferase activity using Dual-Luciferase® Reporter Assay System kit.

The subject of experiment [2] is Tumor Necrosis Factor alpha (TNF-α). The experiment is described as follows: Inhibition of TNF-α biosynthesis after UV irradiation (ELISA). The class given is cell-based. To be noted: human keratinocytes, UV-B 30 mJ/cm^2, 10 μM (10 ppm of extract), 6 to 24 hours; UV control = 100. The method, then: Human keratinocytes were cultured in a 12-well plate type incubator at a concentration of 10^4. The plate was irradiated by UV-B at 30 mJ/cm^2. The media were exchanged with new medium containing 10 μM of each test substance (10 ppm of extract). After 6 to 24 hours of cultivation, the cells were harvested and subjected to ELISA (Pharmingen 555212) to determine the amount of produced tumor necrosis factor α (TNF-α). As the positive control, Wy-14,643 was used.

Experiment [3] relates to Type I Collagenase (MMP-1). Nature of the experiment: Inhibition of type I collagenase (MMP-1) biosynthesis after UV-A irradiation, test substances (ELISA). It counts as cell-based. To be noted: new born human fibroblasts, UV-A 15 J/cm^2, 10 μM or 10 ppm, UV negative control = 100; for Type I collagenase biosynthesis (%), UV-A + TNF-α treated group: plus TNF-α 10 ng/ml. As for the experimental part: To describe the experiment method in detail, human fibroblasts isolated from the skin of a new born baby were cultured in a 48-well plate type incubator at a concentration of 10^4. After 24 hours, the plate was irradiated by UV-A at 15 J/cm^2. […] At the second day of cultivation, the supernatants were harvested and subjected to ELISA (AP biotech RPN2610) to determine the amount of produced type I collagenase. As the positive control, Wy-14,643 and retinoic acid (RA) were used.

In the next experiment the test system is pro-collagen. The experiment is described as follows: Biosynthesis of collagen (pro-collagen ELISA) in fibroblasts. The class given is cell-based, Human. The conditions noted are these: 48 hours, un-treated control = 100. The method, then:
Human fibroblasts were cultured in a 48-well plate type incubator at a concentration of 10^4. The media were exchanged with new medium (theanine: 1, 10, 100 um) containing each test substance of Table 7 at a concentration of 0.001 μM, 0.01 μM, 0.1 μM, 0.5 μM and 2 μM. After 48 hours of cultivation, each supernatant was harvested and subjected to ELISA (Takara MK101) to measure the amount of produced pro-collagen.
Also, in order to examine the synergic effect of theanine on collagen biosynthesis, theanine 10 μM was added to catechin at different 4 concentrations and the result is shown in Table 8.

With `Oc1cc(O)c2c(c1)OC(c1ccc(O)c(O)c1)C(O)C2` (single isomer, unassigned; (-)) [(−) C, (−)catechin], the PPAR-α activity in experiment [1] (10 μM) is listed as 1.4; in experiment [1] (100 μM) it was 1.2.
`Oc1cc(O)c2c(c1)O[C@H](c1ccc(O)c(O)c1)[C@@H](O)C2` [(+) C, (+)catechin]: the PPAR-α activity in experiment [1] (10 μM) was found to be 1.5. Further, in experiment [1] (100 μM), the PPAR-α activity amounted to 1.4. Also, the “TNF-α biosynthesis (%)” value in experiment [2] came out at 40%. In addition, in experiment [3], the “Type I collagenase biosynthesis (%), UV-A + TNF-α treated group” value amounted to 86% and the “Type I collagenase biosynthesis (%), UV-A irradiated group” value is recorded as 45%.
For the compound `Oc1cc(O)c2c(c1)O[C@@H](c1ccc(O)c(O)c1)[C@@H](O)C2` [(+) EC, (+)epicatechin], the results for the PPAR-α activity in experiment [1] (10 μM) and in experiment [1] (100 μM) were 1.3 and 1.2, respectively.
Take `Oc1cc(O)c2c(c1)O[C@H](c1ccc(O)c(O)c1)[C@H](O)C2` [(−) EC, (−)epicatechin]: the PPAR-α activity in experiment [1] (10 μM) and in experiment [1] (100 μM) was 1.2 throughout.
Take `O=C(O[C@@H]1Cc2c(O)cc(O)cc2O[C@@H]1c1ccc(O)c(O)c1)c1cc(O)c(O)c(O)c1` [(−) ECG, epicatechin gallate]: the Collagen biosynthesis in the experiment on pro-collagen (0.001 μM) is 100.5; with pro-collagen (0.01 μM), 181.7; with pro-collagen (0.1 μM) it was 165.3; in the experiment with pro-collagen (0.5 μM), 124.5; with pro-collagen (2 μM), 77.8. Besides, the results for the PPAR-α activity in experiment [1] (10 μM) and in experiment [1] (100 μM) were 1.1 and 1.6, respectively. Further, the “TNF-α biosynthesis (%)” value in experiment [2] is 32%. Further, the “Type I collagenase biosynthesis (%), UV-A + TNF-α treated group” value in experiment [3] is 87%. In experiment [3], the “Type I collagenase biosynthesis (%), UV-A irradiated group” value is 45%.
With `Oc1cc(O)c2c(c1)O[C@H](c1cc(O)c(O)c(O)c1)[C@H](O)C2` [(−) EGC, epigallocatechin], the PPAR-α activity worked out at 1.3 in experiment [1] (10 μM) and 1.0 in experiment [1] (100 μM).
The matching figures for `Oc1cc(O)c2c(c1)O[C@H](c1cc(O)c(O)c(O)c1)[C@@H](O)C2` [(−) GC, gallocatechin]: 1.1 and 1.0.
In the case of `Cn1c(=O)c2c(ncn2C)n(C)c1=O` [Caffeine, reference compound], the PPAR-α activity in experiment [1] (10 μM) worked out at 1.3. The same compound had a PPAR-α activity in experiment [1] (100 μM) of 1.6. In experiment [2], the “TNF-α biosynthesis (%)” value turned out to be 39%. In addition, in experiment [3], the “Type I collagenase biosynthesis (%), UV-A + TNF-α treated group” value is 91% and the “Type I collagenase biosynthesis (%), UV-A irradiated group” value is 58%.
The corresponding values for `O=C(O)c1cc(O)c(O)c(O)c1` [Gallic acid] are 1.3, 1.7, 36%, 89% and 52%.
Consider `O=c1c(O)c(-c2ccc(O)cc2)oc2cc(O)cc(O)c12` [Kaempferol, kaempferol], for which the PPAR-α activity in experiment [1] (10 μM) came out at 1.7. Also, in experiment [1] (100 μM), the PPAR-α activity stood at 1.4. Moreover, the “TNF-α biosynthesis (%)” value in experiment [2] is 41%. In experiment [3], the “Type I collagenase biosynthesis (%), UV-A + TNF-α treated group” value was 94% and the “Type I collagenase biosynthesis (%), UV-A irradiated group” value came to 48%.
The corresponding values for `O=c1c(O)c(-c2ccc(O)c(O)c2)oc2cc(O)cc(O)c12` [Quercetin, quercetin] are 1.7, 2.3, 27%, 91% and 35%.
The matching figures for `O=C(O)[C@]1(O)C[C@@H](O)[C@@H](O)[C@H](O)C1` [Quinic acid]: 1.3, 1.7, 35%, 98% and 75%.
For the compound `CC1=C(/C=C/C(C)=C/C=C/C(C)=C/C(=O)O)C(C)(C)CCC1` [RA, retinoic acid, reference compound], in experiment [3], the “Type I collagenase biosynthesis (%), UV-A + TNF-α treated group” value turned out to be 86% and the “Type I collagenase biosynthesis (%), UV-A irradiated group” value came out at 48%.
Turning to `CCNC(=O)CC[C@H](N)C(=O)O` [Theanine], the figures for the Collagen biosynthesis in the experiment on pro-collagen (10 μM) and in the experiment on pro-collagen (100 μM) were 132.1 and 167.5, respectively. The PPAR-α activity in experiment [1] (10 μM) worked out at 1.8; in experiment [1] (100 μM), 1.9. In addition, the “TNF-α biosynthesis (%)” value in experiment [2] stood at 30%. For the same compound, the “Type I collagenase biosynthesis (%), UV-A + TNF-α treated group” value in experiment [3] came to 95%. Further, the “Type I collagenase biosynthesis (%), UV-A irradiated group” value in experiment [3] was 60%.
Regarding `Cn1cnc2c1c(=O)[nH]c(=O)n2C` [Theobromine], the PPAR-α activity was found to be 2.2 in experiment [1] (10 μM) and 4.5 in experiment [1] (100 μM). Besides, the “TNF-α biosynthesis (%)” value in experiment [2] stood at 25%. For the same compound, the “Type I collagenase biosynthesis (%), UV-A + TNF-α treated group” value in experiment [3] is recorded as 90%. Besides, in experiment [3], the “Type I collagenase biosynthesis (%), UV-A irradiated group” value was 32%.
The matching figures for `Cn1c(=O)c2[nH]cnc2n(C)c1=O` [Theophylline, reference compound]: 1.4, 1.7, 36%, 92% and 40%.
In the case of `Cc1cccc(Nc2cc(Cl)nc(SCC(=O)O)n2)c1C` [Wy14643, Wy-14,643, reference compound], the PPAR-α activity in experiment [1] (0.1 μM) came out at 1.5; in experiment [1] (1 μM) it was 2.6; in experiment [1] (10 μM), 3.8. In experiment [2], the “TNF-α biosynthesis (%)” value amounted to 30%. The “Type I collagenase biosynthesis (%), UV-A + TNF-α treated group” value in experiment [3] is recorded as 92%. The “Type I collagenase biosynthesis (%), UV-A irradiated group” value in experiment [3] turned out to be 60%.

The record behind these values is patent US10092493B2, “Composition of skin external application for anti-aging” (AMOREPACIFIC CORPORATION, priority 2005, dated 2018).
